From patent US10703733B2, “MCL-1 inhibitors” (Gilead Sciences, Inc., priority 2018, dated 2020) come the findings set out here.

By IC50 is commonly meant the concentration at which inhibition is half-maximal. Usually EC50 stands for the concentration giving half of the maximal effect.

Experiment [1] concerns the target MCL-1/Bim interaction (recombinant human MCL-1 protein, residues 171-327; biotinylated human Bim peptide, residues 51-76) (Homo sapiens (Human), UniProt Q07820). Put plainly: MCL-1/Bim Binding AlphaLISA Assay. To be noted: 0.0625 nM 6xHis-Mcl-1 (171-327), 0.0625 nM biotinylated-Bim peptide. The method, boiled down: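 AlphaLISA with 0.0625 nM His-tagged MCL-1 (171-327) and 0.0625 nM biotinylated Bim (51-76) in 20 mM Hepes pH 7.5, 150 mM NaCl, 0.002% Brij 35, 1 mM DTT, 0.01% BSA. Compound preincubated 1 h with MCL-1, then Bim 2 h, acceptor beads 1 h, donor beads 1 h; percent inhibition against DMSO and no-protein/no-peptide controls.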
(In general: Alpha assays give light when donor and acceptor beads are brought close together.)

The test system of another experiment is SKBR3 cells. Put plainly: SKBR3 Cell Viability Assay (CellTiter Glo). To be noted: Homo sapiens, SK-BR-3, 72 h, CellTiter Glo luminescence, read-out: MCL-1 CV SKBR3 EC50. The class given is cell-based. The method, boiled down:
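SKBR3 cells (6,000/well) in McCoy 5A + 10% FBS exposed to serially diluted compound for 72 h at 37° C., 5% CO2. Viability by CellTiter Glo luminescence; % inhibition normalized to DMSO (negative) and 10 μM puromycin (positive).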
On the technique in general: In ATP-based viability assays light output follows the ATP content of the culture.

Sequence of MCL-1/Bim interaction (recombinant human MCL-1 protein, residues 171-327; biotinylated human Bim peptide, residues 51-76) (Q07820 171-327): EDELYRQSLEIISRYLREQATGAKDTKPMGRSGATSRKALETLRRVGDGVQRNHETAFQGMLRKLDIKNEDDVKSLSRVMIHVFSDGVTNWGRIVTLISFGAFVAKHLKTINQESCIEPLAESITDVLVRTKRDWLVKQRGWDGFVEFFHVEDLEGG

Take `COC1CN(C(=O)N[S@@]2(=O)=NC(=O)c3ccc4c(c3)N(C[C@@H]3CC[C@H]3[C@@H](OC)CCC[C@H](C)C2)C[C@@]2(CCCc3cc(Cl)ccc32)CO4)C1` [Example 244]: the IC50 in experiment [1] was determined as 0.032 nM. In addition, the EC50 with SKBR3 cells was 116 nM.
For `COC(=O)N1CCN(C(=O)N[S@@]2(=O)=NC(=O)c3ccc4c(c3)N(C[C@@H]3CC[C@H]3[C@@H](OC)/C=C/C[C@H](C)C2)C[C@@]2(CCCc3cc(Cl)ccc32)CO4)CC1` [Example 245] the same measures were 0.066 nM and 60.7 nM.
For `CO[C@H]1/C=C/C[C@H](C)C[S@@](=O)(NC(=O)N2CC(OC)(C(F)(F)F)C2)=NC(=O)c2ccc3c(c2)N(C[C@@H]2CC[C@H]21)C[C@@]1(CCCc2cc(Cl)ccc21)CO3` [Example 246] the same measures were 0.096 nM and 176 nM.
For `CO[C@H]1/C=C/C[C@H](C)C[S@@](=O)(NC(=O)N2CCN(C(C)=O)CC2)=NC(=O)c2ccc3c(c2)N(C[C@@H]2CC[C@H]21)C[C@@]1(CCCc2cc(Cl)ccc21)CO3` [Example 247] the same measures were 0.042 nM and 85 nM.
In the case of `CO[C@H]1/C=C/C[C@H](C)C[S@@](=O)(NC(=O)N2CC3(COCCO3)C2)=NC(=O)c2ccc3c(c2)N(C[C@@H]2CC[C@H]21)C[C@@]1(CCCc2cc(Cl)ccc21)CO3` [Example 248], the IC50 in experiment [1] was found to be 0.042 nM. Also, the EC50 with SKBR3 cells came to 55.3 nM.
Take `COc1nn(C)cc1C(=O)N[S@@]1(=O)=NC(=O)c2ccc3c(c2)N(C[C@@H]2CC[C@H]2[C@@H](OC(C)=O)/C=C/C[C@H](C)[C@H]1C)C[C@@]1(CCCc2cc(Cl)ccc21)CO3` [Example 249]: the half-inhibitory concentration (IC50) in experiment [1] was 0.14 nM. In the experiment with SKBR3 cells, the EC50 is 222 nM.
Turning to `CO[C@H]1/C=C/C[C@H](C)C[S@@](=O)(NC(=O)N2C[C@H](OC)[C@H]2C)=NC(=O)c2ccc3c(c2)N(C[C@@H]2CC[C@H]21)C[C@@]1(CCCc2cc(Cl)ccc21)CO3` [Example 250], the half-inhibitory concentration (IC50) in experiment [1] was found to be 0.029 nM. Besides, the half-maximal effective concentration (EC50) in the experiment on SKBR3 cells turned out to be 44.4 nM.
For `COCCOC1CN(C(=O)N[S@@]2(=O)=NC(=O)c3ccc4c(c3)N(C[C@@H]3CC[C@H]3[C@@H](OC)/C=C/C[C@H](C)C2)C[C@@]2(CCCc3cc(Cl)ccc32)CO4)C1` [Example 251] the same measures were 0.037 nM and 39.6 nM.
Turning to `COc1nn(C(F)F)cc1C(=O)N[S@@]1(=O)=NC(=O)c2ccc3c(c2)N(C[C@@H]2CC[C@H]2[C@@H](OC)/C=C/C[C@H](C)C1)C[C@@]1(CCCc2cc(Cl)ccc21)CO3` [Example 252], the IC50 in experiment [1] was 0.043 nM. In addition, the EC50 in the experiment with SKBR3 cells worked out at 82.7 nM.
`CO[C@H]1/C=C/C[C@H](C)C[S@@](=O)(NC(=O)N2C[C@@H](OC)[C@@H]2C)=NC(=O)c2ccc3c(c2)N(C[C@@H]2CC[C@H]21)C[C@@]1(CCCc2cc(Cl)ccc21)CO3` [Example 253]: the IC50 in experiment [1] turned out to be 0.037 nM. Besides, the concentration giving a half-maximal response (EC50) in the experiment with SKBR3 cells came to 39.2 nM.
The corresponding values for `COc1nn(C)cc1C(=O)N[S@@]1(=O)=NC(=O)c2ccc3c(c2)N(C[C@@H]2CC[C@H]2[C@@H](OC(=O)[C@@H](N)C(C)C)/C=C/C[C@H](C)[C@H]1C)C[C@@]1(CCCc2cc(Cl)ccc21)CO3` [Example 254] are 0.126 nM and 155 nM.
Regarding `COC[C@@H]1CCN(C(=O)N[S@@]2(=O)=NC(=O)c3ccc4c(c3)N(C[C@@H]3CC[C@H]3[C@@H](OC)/C=C/C[C@H](C)C2)C[C@@]2(CCCc3cc(Cl)ccc32)CO4)C1` [Example 256], in experiment [1], the half-maximal inhibitory concentration (IC50) worked out at 0.162 nM. In the experiment with SKBR3 cells, the EC50 came to 161 nM.
The corresponding values for `COC1CC2(C1)CN(C(=O)N[S@@]1(=O)=NC(=O)c3ccc4c(c3)N(C[C@@H]3CC[C@H]3[C@@H](OC)/C=C/C[C@H](C)C1)C[C@@]1(CCCc3cc(Cl)ccc31)CO4)C2` [Example 257] are 0.083 nM and 89.7 nM.
On to `CO[C@H]1/C=C/C[C@H](C)C[S@@](=O)(NC(=O)N2CCC(C(F)F)CC2)=NC(=O)c2ccc3c(c2)N(C[C@@H]2CC[C@H]21)C[C@@]1(CCCc2cc(Cl)ccc21)CO3` [Example 258], for which the half-inhibitory concentration (IC50) in experiment [1] came out at 0.117 nM. The EC50 with SKBR3 cells came to 195 nM.
